Data as given in PMC12655351, “Synthesis and Anticancer Activity Evaluation of New 5-((5-Nitrofuran-2-yl)allylidene)-2-thioxo-4-thiazolidinones” (Pharmaceuticals, 2025).

What was measured:
786-0 = assay: cells; conditions: Homo sapiens, 786-0, 48 h
PC-3 = assay: cells; conditions: Homo sapiens, PC-3, 48 h
UACC-62 = assay: NCI-60 SRB screen; conditions: UACC-62, 48 h; for GI50 / CC50: Homo sapiens; for CC50: read-out: LC50, UACC-62, 48 h
MDA-MB-231 = assay: [3H]-thymidine incorporation assay; format: cell-based; conditions: Homo sapiens; MDA-MB-231, 24 h of treatment
Method: (§1) Another method of assessing the cytotoxic effects of tested compounds, [^3H]-thymidine incorporation assay, was applied. This method provided the capability to analyze the antiproliferative activity of novel structures on MCF-7 and MDA-MB-231 through their ability to incorporate thymidine into the cells. The acquired results further confirmed the potent activity of the 14b compound as the most prominent structure among the novel compounds (Table 2). The test was carried out in triplicate at concentrations of 5, 15, and 30 μM for the MDA-MB-231 cell line and 1, 5, and 10 μM for the MCF-7 cell line.
(§2) Following the selection of cell lines for further study, the effects of all compounds on cell proliferation were evaluated on MCF-7 and MDA-MB-231 cell lines. Cells were seeded in 24-well plates and cultured as described above. Cells were treated with the compounds at concentrations 1, 5, and 10 μM, and 5, 15, and 30 μM for MCF-7 and MDA-MB-231 cell lines, respectively, for 24 h. Subsequently, 0.5 μCi [^3H]-thymidine was added for 4 h at 37 °C. Then, plates with cells were placed on the ice, the liquid was aspirated, and cells were washed twice with 1mL of 0.05 M Tris-HCl buffer comprising 0.11 M NaCl and precipitated by adding 1 mL per well of 5% trichloroacetic. After precipitation, the cells were dissolved with 1 mL of 0.1 M NaOH with 1% SDS (Sigma-Aldrich, St. Louis, MO, USA) at room temperature (RT). The cell lysates were transferred into scintillation vials containing 2 mL of scintillation fluid (Ultima Gold™ XR, PerkinElmer, MA, USA), and cell-associated radioactivity was measured using a Scintillation Counter 1900 TR, TRI-CARB (Packard, Perkin Elmer, Inc., San Jose, CA, USA). The [^3H]-thymidine uptake was expressed as a percentage of the control value.

MCF-7 = assay: [3H]-thymidine incorporation assay; format: cell-based; conditions: Homo sapiens, MCF7; MCF-7, 24 h of treatment
Method: as §1, §2

OVCAR-4 = conditions: OVCAR-4, 48 h
NCI-H460 = assay: NCI-60 SRB screen; conditions: NCI-H460, 48 h; for GI50 / CC50: Homo sapiens; for CC50: read-out: LC50
CNS cancer = assay: cells; conditions: Homo sapiens; for GI50: read-out: MG_MID GI50; for CC50: read-out: MG_MID LC50
NCI/ADR-RES = conditions: 48 h
HOP-62 = assay: NCI-60 SRB screen; conditions: HOP-62, 48 h; for GI50: Homo sapiens
UO-31 = conditions: UO-31, 48 h
HOP-92 = assay: NCI-60 SRB screen; conditions: HOP-92, 48 h; for GI50 / CC50: Homo sapiens; for CC50: read-out: LC50, HOP-92, 48 h
HCT-15 = assay: NCI-60 SRB screen; conditions: HCT-15, 48 h; for GI50 / CC50: Homo sapiens; for CC50: read-out: LC50, HCT-15, 48 h
OVCAR-3 = assay: cells; conditions: Homo sapiens, OVCAR-3, 48 h
Renal Cancer = Renal Cancer subpanel
MDA-MB-231/ATCC = conditions: 48 h
K-562 = conditions: K-562, 48 h
BT-549 = conditions: for TGI: BT-549, 48 h
SR = assay: cells; conditions: Homo sapiens, 48 h; for CC50: read-out: LC50
HS 578T = assay: cells; conditions: Homo sapiens, 48 h; for GI50: HS 578T; for CC50: read-out: LC50
HT29 = conditions: HT29, 48 h
MCF7 = assay: NCI-60 SRB screen; conditions: MCF7, 48 h; for GI50: Homo sapiens
MOLT-4 = conditions: MOLT-4, 48 h
A498 = conditions: A498, 48 h
DU-145 = conditions: for TGI: DU-145, 48 h
SK-OV-3 = conditions: SK-OV-3, 48 h
RPMI-8226 [1] = assay: cells; conditions: Homo sapiens, RPMI-8226, 48 h; for CC50: read-out: LC50
RPMI-8226 [2] = conditions: RPMI-8226, 48 h
Prostate Cancer = assay: cells; conditions: Homo sapiens, read-out: MG_MID GI50
[3] = system: panel of 60 cancer cell lines; conditions: for Positive cytostatic effect (ratio of cell lines with GP from 0 to 50 to total number) / Mean growth / Range of growth: 10 μM, 48 h; for Mean growth / Range of growth: one dose; for MG_MID TGI: full panel (last line of Table S2)

Compound: CC(C)C(C(=O)O)N1C(=O)/C(=C/C=C/c2ccc([N+](=O)[O-])o2)SC1=S (stereo not drawn) [5b, 3-Methyl-2-((Z)-5-((E)-3-(5-nitrofuran-2-yl)allylidene)-4-oxo-2-thioxothiazolidin-3-yl)butanoic acid]
- GI50 (786-0): 1.06 µM
- GI50 (PC-3): 1.8 µM
- GI50 (UACC-62): 0.78 µM
- CC50 (UACC-62): 4.9 µM
- TGI (UACC-62): 2.16 µM
- IC50 (MDA-MB-231): 6.01 µM
- IC50 (MCF-7): 1.93 µM
- TGI (OVCAR-4): 6.72 µM
- GI50 (NCI-H460): 1.76 µM
- CC50 (NCI-H460): 34.5 µM
- TGI (NCI-H460): 4.93 µM
- GI50 (CNS cancer): 1.28 µM
- CC50 (CNS cancer): 5.93 µM
- TGI (NCI/ADR-RES): 4.13 µM
- TGI (HOP-62): 3.08 µM
- GI50 (HOP-62): 1.35 µM
- TGI (UO-31): 3.11 µM
- TGI (HOP-92): 4.17 µM
- GI50 (HOP-92): 2.13 µM
- CC50 (HOP-92): 8.15 µM
- TGI (HCT-15): 2.18 µM
- GI50 (HCT-15): 0.73 µM
- CC50 (HCT-15): 5.32 µM
- GI50 (OVCAR-3): 1.34 µM
- MG_MID TGI (Renal Cancer): 3.27 µM
- TGI (MDA-MB-231/ATCC): 3.03 µM
- TGI (K-562): 2.86 µM
- growth GP (BT-549; BT-549, 10 μM, 48 h): -98.16%
- TGI (BT-549): 2.14 µM
- GI50 (SR): 0.32 µM
- CC50 (SR): > 100 µM
- GI50 (HS 578T): 2.09 µM
- CC50 (HS 578T): > 100 µM
- TGI (HT29): 2.90 µM
- GI50 (MCF7): 0.43 µM
- TGI (MCF7): 1.83 µM
- TGI (MOLT-4): 10.7 µM
- TGI (A498): 4.81 µM
- growth GP (DU-145; DU-145, 10 μM, 48 h): -98.94%
- TGI (DU-145): 2.82 µM
- TGI (SK-OV-3): 10.7 µM
- GI50 (RPMI-8226 [1]): 0.35 µM
- CC50 (RPMI-8226 [1]): > 100 µM
- TGI (RPMI-8226 [2]): 1.49 µM
- GI50 (Prostate Cancer): 1.62 µM
- Positive cytostatic effect (ratio of cell lines with GP from 0 to 50 to total number) [3]: 2/55
- Mean growth [3]: -73.80%
- MG_MID TGI [3]: 3.53 µM

Compound: CCCCC(C(=O)O)N1C(=O)/C(=C/C=C/c2ccc([N+](=O)[O-])o2)SC1=S (stereo not drawn) [6b, 2-((Z)-5-((E)-3-(5-nitrofuran-2-yl)allylidene)-4-oxo-2-thioxothiazolidin-3-yl)hexanoic acid]
- GI50 (786-0): 3.11 µM
- GI50 (PC-3): 3.05 µM
- GI50 (UACC-62): 1.38 µM
- CC50 (UACC-62): 5.61 µM
- TGI (UACC-62): 2.78 µM
- IC50 (MDA-MB-231): 2.01 µM
- IC50 (MCF-7): 5.81 µM
- TGI (OVCAR-4): 19.0 µM
- GI50 (NCI-H460): 1.84 µM
- CC50 (NCI-H460): 69.6 µM
- TGI (NCI-H460): 3.61 µM
- GI50 (CNS cancer): 2.01 µM
- CC50 (CNS cancer): 12 µM
- TGI (NCI/ADR-RES): 5.61 µM
- TGI (HOP-62): 5.20 µM
- GI50 (HOP-62): 2.25 µM
- TGI (UO-31): 3.29 µM
- TGI (HOP-92): 9.85 µM
- GI50 (HOP-92): 3.57 µM
- CC50 (HOP-92): 42.2 µM
- TGI (HCT-15): 3.58 µM
- GI50 (HCT-15): 1.71 µM
- CC50 (HCT-15): 7.47 µM
- GI50 (OVCAR-3): 2.23 µM
- MG_MID TGI (Renal Cancer): 5.37 µM
- TGI (MDA-MB-231/ATCC): 4.45 µM
- TGI (K-562): 10.5 µM
- TGI (BT-549): 3.12 µM
- GI50 (SR): 1.98 µM
- CC50 (SR): > 100 µM
- GI50 (HS 578T): 3.38 µM
- CC50 (HS 578T): > 100 µM
- TGI (HT29): 3.71 µM
- GI50 (MCF7): 1.64 µM
- TGI (MCF7): 4.11 µM
- TGI (MOLT-4): 13.5 µM
- TGI (A498): 8.28 µM
- TGI (DU-145): 10.2 µM
- TGI (SK-OV-3): 19.4 µM
- GI50 (RPMI-8226 [1]): 1.78 µM
- CC50 (RPMI-8226 [1]): > 100 µM
- TGI (RPMI-8226 [2]): 6.09 µM
- GI50 (Prostate Cancer): 3.29 µM
- Positive cytostatic effect (ratio of cell lines with GP from 0 to 50 to total number) [3]: 6/55
- Range of growth [3]: -99.30 to 46.65%
- MG_MID TGI [3]: 6.27 µM

Compound: O=C(O)C(c1ccccc1)N1C(=O)/C(=C/C=C/c2ccc([N+](=O)[O-])o2)SC1=S (stereo not drawn) [9b, 2-((Z)-5-((E)-3-(5-Nitrofuran-2-yl)allylidene)-4-oxo-2-thioxothiazolidin-3-yl)-2-phenylacetic acid]
- GI50 (786-0): 3.67 µM
- GI50 (PC-3): 13.5 µM
- GI50 (UACC-62): 2.69 µM
- CC50 (UACC-62): 35.3 µM
- TGI (UACC-62): 11.1 µM
- IC50 (MDA-MB-231): 7.53 µM
- IC50 (MCF-7): 7.98 µM
- TGI (OVCAR-4): 28.0 µM
- GI50 (NCI-H460): 11.6 µM
- CC50 (NCI-H460): 73.6 µM
- TGI (NCI-H460): 29.2 µM
- GI50 (CNS cancer): 9.99 µM
- CC50 (CNS cancer): 48.4 µM
- TGI (NCI/ADR-RES): 33.9 µM
- TGI (HOP-62): 44.5 µM
- GI50 (HOP-62): 13.1 µM
- TGI (UO-31): 23.4 µM
- TGI (HOP-92): 27.5 µM
- GI50 (HOP-92): 13.4 µM
- CC50 (HOP-92): 56.2 µM
- TGI (HCT-15): 22.9 µM
- GI50 (HCT-15): 7.73 µM
- CC50 (HCT-15): 59 µM
- GI50 (OVCAR-3): 9.26 µM
- MG_MID TGI (Renal Cancer): 22.1 µM
- TGI (MDA-MB-231/ATCC): 24.2 µM
- TGI (K-562): 19.3 µM
- TGI (BT-549): 7.81 µM
- GI50 (SR): 3.15 µM
- CC50 (SR): > 100 µM
- GI50 (HS 578T): 4.59 µM
- CC50 (HS 578T): > 100 µM
- TGI (HT29): 22.4 µM
- GI50 (MCF7): 3.67 µM
- TGI (MCF7): 16.5 µM
- TGI (MOLT-4): 39.9 µM
- TGI (A498): 36.5 µM
- TGI (DU-145): 23.7 µM
- TGI (SK-OV-3): 29.9 µM
- GI50 (RPMI-8226 [1]): 3.19 µM
- CC50 (RPMI-8226 [1]): > 100 µM
- TGI (RPMI-8226 [2]): 12.7 µM
- GI50 (Prostate Cancer): 12.5 µM
- Positive cytostatic effect (ratio of cell lines with GP from 0 to 50 to total number) [3]: 28/55
- Mean growth [3]: 26.29%
- Range of growth [3]: -88.21 to 175.37%
- MG_MID TGI [3]: 24.1 µM
